Source: patent publication US12491173B2, “Metabolism-improving agent comprising rare fatty acid” (Noster Inc., priority 2014, dated 2025)

Columns and labels:
[1] = target: T1, fusion protein of PPARγ ligand binding region and GAL4 DNA binding region (Homo sapiens, UniProt P37231); assay: PPARγ ligand activity, GAL4 fusion luciferase reporter assay in CV-1 cell; type: cell-based; details: sample 10 μM and 30 μM, vs ethanol negative control, FIG. 3
T1 construct: expressed in transfected cells; host or cells: CV-1 cell
T1 sequence (P37231 238-503 limits assumed): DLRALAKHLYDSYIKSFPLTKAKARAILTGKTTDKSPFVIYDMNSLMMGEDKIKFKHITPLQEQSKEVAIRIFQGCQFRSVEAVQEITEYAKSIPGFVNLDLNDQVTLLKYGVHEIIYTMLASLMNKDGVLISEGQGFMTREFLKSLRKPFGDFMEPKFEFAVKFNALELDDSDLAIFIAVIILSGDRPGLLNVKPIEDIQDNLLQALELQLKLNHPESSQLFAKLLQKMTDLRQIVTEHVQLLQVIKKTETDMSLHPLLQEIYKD
Experimental: (§1) To evaluate the function of hydroxylated fatty acid and oxo fatty acid and the like, PPARα, γ-activating action was measured first. The measurement was performed in reference to Nobuyuki Takahashi et al., FEBS Letters 514 (2002) p. 315-322, “Dual action of isoprenols from herbal medicines on both PPARgamma and PPARalpha in 3T3-L1 adipocytes and HepG2 hepatocytes.”, the section of Materials and Methods “Reporter plasmids and luciferase assays”. To be specific, PPARα,γ ligand activity was measured by a reporter assay that evaluates binding to a fusion protein of PPAR ligand binding region and GAL4 DNA binding region and target gene activation, based on the expression of luciferase. Specifically, a plasmid comprising a DNA encoding a fusion protein of PPARα,γ ligand binding region and GAL4 DNA binding region and a reporter plasmid wherein luciferase linked to GAL4 bound DNA sequence were introduced into CV-1 cell, a ligand described below was added to the cell, the cell was incubated and the luciferase activity was detected.
(§2) The concentration (10 μM and 30 μM) of the sample was adjusted with ethanol. Ethanol was used as a negative control, and PPARα,γ ligands GW7647 (10 nM) and troglitazone (5 μM) were used as a positive control.

[2] = target: T2, fusion protein of PPARα ligand binding region and GAL4 DNA binding region (Homo sapiens, UniProt Q07869); assay: PPARα ligand activity, GAL4 fusion luciferase reporter assay in CV-1 cell; type: cell-based; details: sample 10 μM and 30 μM, vs ethanol negative control, FIG. 2
T2 construct: expressed in transfected cells; host or cells: CV-1 cell
T2 sequence (Q07869 239-466 limits assumed): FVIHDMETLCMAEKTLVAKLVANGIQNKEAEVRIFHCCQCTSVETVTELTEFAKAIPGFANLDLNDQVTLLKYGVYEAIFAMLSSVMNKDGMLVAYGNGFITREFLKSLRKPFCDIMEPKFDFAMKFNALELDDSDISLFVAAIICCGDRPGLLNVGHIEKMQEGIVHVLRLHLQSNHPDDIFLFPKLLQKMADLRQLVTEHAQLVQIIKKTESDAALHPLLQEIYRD
Experimental: as §1, §2

| SMILES | PPARγ agonist activity (relative luciferase activity) [1] | PPARα agonist activity (relative luciferase activity) [2] |
| --- | --- | --- |
| CC/C=C\CC(=O)CC/C=C\CCCCCCCC(=O)O [13-OXO ALA, 13-oxo-cis-9,cis-15-octadecadienoic acid] | strong PPARγ agonist activity | – |
| CCCCCC(=O)CC/C=C\C/C=C\CCCCC(=O)O [13-OXO GLA, 13-oxo-cis-6,cis-9-octadecadienoic acid] | – | strong PPARα agonist activity |
